Earlier results on two molecules are cited in patent US11083734B2 (ACUCORT AB, priority 2014, dated 2021).

For data set [1] the following is noted: humans, oral administration, literature and product information.

For the molecule `C[C@@H]1C[C@H]2[C@@H]3CCC4=CC(=O)C=C[C@]4(C)[C@@]3(F)[C@@H](O)C[C@]2(C)[C@@]1(O)C(=O)CO` [dexamethasone], the “solubility in anhydrous ethanol” value was “sparingly soluble” and the solubility in water result is on record as “practically insoluble”. The “t(max)” value in data set [1] is about 1.5 h.
`C[C@@H]1C[C@H]2[C@@H]3CCC4=CC(=O)C=C[C@]4(C)[C@@]3(F)[C@@H](O)C[C@]2(C)[C@@]1(O)C(=O)COP(=O)(O)O` [dexamethasone sodium phosphate]: the solubility in water result was “freely soluble”.
